Common to all, as to assay type: biochemical
Holding throughout (conditions): 200 μg/ml Poly Glu-Tyr (4:1), ATP 1 uM, 90 min room temperature, luminescence

In experiment [1] the target is T1, Recombinant JAK2 (Amino acids 808-1132) (Homo sapiens, UniProt O60674).
T1 construct: JAK2 (Amino acids 808-1132; NM_004972.3); made in house; host or cells: baculovirus expression system (Bac-to-Bac)
The experiment is described as follows: Kinase-Glo Luminescent Kinase Assay, recombinant JAK2. An excerpt:
(§1) Recombinant JAK1 (Amino acids 850-1154; NM_002227.2), JAK2 (Amino acids 808-1132; NM_004972.3) and JAK3 (Amino acids 781-1124; NM_000215.3) used in the studies were expressed using Invitrogen's Bac-to-Bac baculovirus expression system according to manufacturer's instructions. Adenosine 5′-triphosphate was obtained from Sigma Aldrich chemicals (Cat # A7699). Poly Glu-Tyr (4:1) sodium salt was obtained from Sigma Aldrich (Cat # P0275), Kinase Glo® Luminescent Kinase assay kit was obtained from Promega (Cat # V6713) Kinase activity was assessed by Promega Kinase-Glo® Luminescent Kinase Assay kit using 200 μg/ml Poly Glu-Tyr (4:1) as substrate and ATP at 1 uM concentration. The reactions were carried out in 384 well plates in total reaction volume of 20 uL. Reaction mixtures contained 50 mM HEPES pH 7.4, 5 mM MgCl2, 1 mM DTT, 0.01% BSA, 0.01% Tween 20. Kinase was pre-incubated with compounds or 1% DMSO for 5 min before addition of substrate and ATP to check for inhibition. Kinase reactions were carried out at room temperature for 90 min. The reactions were stopped by adding 5 μl of Kinase Glo® reagent & 10 μl of reaction mixture followed by measuring luminescence. The luminescent signal is correlated with the amount of ATP present at the end of kinase reaction and is inversely correlated with the amount of kinase activity. For each data point, % inhibition is calculated based on uninhibited reaction (without compound) which is considered as 100% activity over no enzyme or substrate controls. Dose response data is then fit using a four parameter logistic equation using Graph-pad Prism 5 software to determine inhibition constant 50 (IC50).

In experiment [2] the target is T2, Recombinant JAK3 (Amino acids 781-1124) (Homo sapiens, UniProt P52333).
T2 construct: JAK3 (Amino acids 781-1124; NM_000215.3); made in house; host or cells: baculovirus expression system (Bac-to-Bac)
The experiment is described as follows: Kinase-Glo Luminescent Kinase Assay, recombinant JAK3.
Text: as §1

Experiment [3] concerns the target T3, Recombinant JAK1 (Amino acids 850-1154) (Homo sapiens, UniProt P23458).
T3 construct: Recombinant JAK1 (Amino acids 850-1154; NM_002227.2); made in house; host or cells: baculovirus expression system (Bac-to-Bac)
The experiment is described as follows: Kinase-Glo Luminescent Kinase Assay, recombinant JAK1.
Text: as §1

The results in this text go back to patent US9115133B2, “Substituted fused tricyclic compounds, compositions and medicinal applications thereof” (Advinus Therapeutics Limited, priority 2011, dated 2015).

T2 sequence (P52333 781-1124): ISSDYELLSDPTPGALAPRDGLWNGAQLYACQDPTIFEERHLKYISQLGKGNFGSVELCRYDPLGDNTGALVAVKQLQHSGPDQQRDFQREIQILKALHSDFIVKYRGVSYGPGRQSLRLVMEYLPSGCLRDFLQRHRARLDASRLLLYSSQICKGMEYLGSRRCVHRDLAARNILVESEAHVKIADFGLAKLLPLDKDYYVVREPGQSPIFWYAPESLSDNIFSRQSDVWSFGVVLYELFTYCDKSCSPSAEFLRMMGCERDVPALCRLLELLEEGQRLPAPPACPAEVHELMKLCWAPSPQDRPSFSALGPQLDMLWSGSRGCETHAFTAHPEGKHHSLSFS
T3 sequence (P23458 850-1154): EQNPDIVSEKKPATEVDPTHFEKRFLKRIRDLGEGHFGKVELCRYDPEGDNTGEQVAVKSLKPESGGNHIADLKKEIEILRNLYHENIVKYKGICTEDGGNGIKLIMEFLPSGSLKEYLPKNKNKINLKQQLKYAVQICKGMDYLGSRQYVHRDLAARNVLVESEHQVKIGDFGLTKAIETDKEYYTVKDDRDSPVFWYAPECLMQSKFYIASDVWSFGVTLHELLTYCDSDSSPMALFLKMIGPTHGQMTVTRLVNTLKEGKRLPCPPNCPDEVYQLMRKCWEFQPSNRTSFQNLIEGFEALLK
T1 sequence (O60674 808-1132): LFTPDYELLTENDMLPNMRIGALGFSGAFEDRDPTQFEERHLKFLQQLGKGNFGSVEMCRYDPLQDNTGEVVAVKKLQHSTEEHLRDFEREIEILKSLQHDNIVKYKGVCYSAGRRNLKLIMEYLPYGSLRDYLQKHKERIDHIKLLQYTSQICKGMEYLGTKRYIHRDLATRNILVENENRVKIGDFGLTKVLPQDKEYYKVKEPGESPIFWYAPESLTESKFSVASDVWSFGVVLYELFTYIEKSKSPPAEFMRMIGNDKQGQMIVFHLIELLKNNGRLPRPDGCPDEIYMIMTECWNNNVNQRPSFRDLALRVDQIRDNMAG

For `CS(=O)(=O)N1CCC[C@H](c2ccnc3cnc4[nH]ccc4c23)C1` [Ex. 10A, (R)9-(1-methylsulfonyl-3-piperidyl)-3H-pyrrolo[3,2-f][1,7]naphthyridine], the IC50 in experiment [1] and in experiment [2] was over 0.02 µM throughout.
Take `c1cc(N2CCCCC2)c2c(cnc3[nH]ccc32)n1` [Ex. 58, 9-(1-piperidyl)-3H-pyrrolo[3,2-f][1,7]naphthyridine]: the half-maximal inhibitory concentration (IC50) in experiment [1] and in experiment [2] was 0.001 to 0.02 µM in each case.
As to `O=C(NC1CC1)[C@H]1CCCN(c2ccnc3cnc4[nH]ccc4c23)C1` [Ex. 61A, (3S)-N-cyclopropyl-1-(3H-pyrrolo[3,2-f][1,7]naphthyridin-9-yl)piperidine-3-carboxamide], the IC50 in experiment [1] and in experiment [2] was over 0.02 µM throughout.
`COCCOC1CCCN(c2ccnc3cnc4[nH]ccc4c23)C1` (stereo not shown) [Ex. 57, 9-[3-(2-methoxyethoxy)-1-piperidyl]-3H-pyrrolo[3,2-f][1,7]naphthyridine]: the IC50 in experiment [1] and in experiment [2] was over 0.02 µM throughout.
With `O=C(CC(F)(F)F)N1CCC[C@H](c2ncnc3cnc4[nH]ccc4c23)C1` [Ex. 24B, (S)3,3,3-Trifluoro-1-[3-(3H-3,4,6,8-tetraazacyclopenta[a]naphthalen-9-yl)-piperidin-1-yl]-propan-1-one], the IC50 in experiment [1] and in experiment [2] was 0.001 to 0.02 µM in each case.
Take `CC(C)(C)OC(=O)N1CCC(c2ccnc3cnc4[nH]ccc4c23)C1` (stereo not shown) [Comp. 50, tert-butyl 3-(3H-pyrrolo[3,2-f][1,7]naphthyridin-9-yl)pyrrolidine-1-carboxylate]: the concentration for half-maximal inhibition (IC50) in experiment [3] was 0.001 to 0.02 µM; in experiment [2], over 0.02 µM.
On the same counts, the results for `COCCNC(=O)C1CCN(c2ccnc3cnc4[nH]ccc4c23)CC1` [Ex. 77, N-(2-methoxyethyl)-1-(3H-pyrrolo[3,2-f][1,7]naphthyridin-9-yl)piperidine-4-carboxamide] are over 0.02 µM and over 0.02 µM.
For `CC(C)CNC(=O)C1CCCN(c2ccnc3cnc4[nH]ccc4c23)C1` (stereo not shown) [Ex. 67, N-isobutyl-1-(3H-pyrrolo[3,2-f][1,7]naphthyridin-9-yl)piperidine-3-carboxamide], in that order: over 0.02 µM and over 0.02 µM.
For `CC(C)S(=O)(=O)NC1CCN(c2ccnc3cnc4[nH]ccc4c23)C1` (stereo not shown) [Ex. 92, N-[1-(3H-pyrrolo[3,2-f][1,7]naphthyridin-9-yl)pyrrolidin-3-yl]propane-2-sulfonamide], the values for the IC50 in experiment [1] and in experiment [2] were 0.001 to 0.02 µM and over 0.02 µM, respectively.
Consider `O=C(CC(F)(F)F)N1CCN(c2ccnc3cnc4[nH]ccc4c23)CC1` [Ex. 103, 3,3,3-trifluoro-1-[4-(3H-pyrrolo[3,2-f][1,7]naphthyridin-9-yl)piperazin-1-yl]propan-1-one], for which the 50% inhibitory concentration (IC50) in experiment [3] and in experiment [2] was over 0.02 µM throughout.
Turning to `N#CCC(=O)N1CCC[C@H](c2ncnc3cnc4[nH]ccc4c23)C1` [Ex. 23B, (S)3-Oxo-3-[3-(3H-3,4,6,8-tetraazacyclopenta[a]naphthalen-9-yl)-piperidin-1-yl]-propionitrile], the half-maximal inhibitory concentration (IC50) in experiment [1] and in experiment [2] was 0.001 to 0.02 µM each time.
Regarding `N#CCS(=O)(=O)N1CCCC(c2ccnc3cnc4[nH]ccc4c23)C1` (stereo not shown) [Ex. 7, 2-[[3-(3H-pyrrolo[3,2-f][1,7]naphthyridin-9-yl)-1-piperidyl]sulfonyl]acetonitrile], the IC50 in experiment [3] and in experiment [2] was 0.001 to 0.02 µM throughout.
Take `O=C(NC1CC1)N1CCCC(c2ccnc3cnc4[nH]ccc4c23)C1` (stereo not shown) [Ex. 46, N-cyclopropyl-3-(3H-pyrrolo[3,2-f][1,7]naphthyridin-9-yl)piperidine-1-carboxamide]: the IC50 in experiment [1] and in experiment [2] was over 0.02 µM in each case.
Consider `CC(C)CC(=O)N1CCCC(c2ccnc3cnc4[nH]ccc4c23)C1` (stereo not shown) [Ex. 5, 3-methyl-1-[3-(3H-pyrrolo[3,2-f][1,7]naphthyridin-9-yl)-1-piperidyl]butan-1-one], for which the IC50 in experiment [3] is 0.001 to 0.02 µM; in experiment [2] it was over 0.02 µM.
For `O=S(=O)(C1CC1)N1CCCC(c2ccnc3cnc4[nH]ccc4c23)C1` (stereo not shown) [Ex. 6, 9-(1-cyclopropylsulfonyl-3-piperidyl)-3H-pyrrolo[3,2-f][1,7]naphthyridine], in that order: 0.001 to 0.02 µM and 0.001 to 0.02 µM.
For `CN(CC(F)(F)F)C(=O)C1CCN(c2ccnc3cnc4[nH]ccc4c23)CC1` [Ex. 82, N-methyl-1-(3H-yrrolo[3,2-f][1,7]naphthyridin-9-yl)-N-(2,2,2-trifluoroethyl) piperidine-4-carboxamide], in that order: over 0.02 µM and 0.001 to 0.02 µM.
On the same counts, the results for `CC(C)CS(=O)(=O)N1CCCC(c2ccnc3cnc4[nH]ccc4c23)C1` (stereo not shown) [Ex. 8, 9-(1-isobutylsulfonyl-3-piperidyl)-3H-pyrrolo[3,2-f][1,7]naphthyridine] are 0.001 to 0.02 µM and 0.001 to 0.02 µM.
`CC(C)NC(=O)C1CCN(c2ccnc3cnc4[nH]ccc4c23)CC1` [Ex. 75, N-isopropyl-1-(3H-pyrrolo[3,2-f][1,7]naphthyridin-9-yl)piperidine-4-carboxamide]: the IC50 in experiment [3] and in experiment [2] was over 0.02 µM each time.
For `O=C(NCC(F)(F)F)C1CCN(c2ccnc3cnc4[nH]ccc4c23)CC1` [Ex. 78, 1-(3H-pyrrolo[3,2-f][1,7]naphthyridin-9-yl)-N-(2,2,2-trifluoroethyl)piperidine-4-carboxamide], the IC50 in experiment [3] and in experiment [2] was over 0.02 µM each time.
Consider `CC1CCC(C(=O)NC2CC2)CN1c1ccnc2cnc3[nH]ccc3c12` (single isomer, unassigned) [Ex. 88B, trans-N-cyclopropyl-6-methyl-1-(3H-pyrrolo[3,2-f][1,7]naphthyridin-9-yl)piperidine-3-carboxamide], for which the IC50 was over 0.02 µM in experiment [3] and 0.001 to 0.02 µM in experiment [2].
On the same counts, the results for `CC1CCC(C(=O)NC2CC2)CN1c1ccnc2cnc3[nH]ccc3c12` (single isomer, unassigned) [Ex. 88A, cis-N-cyclopropyl-6-methyl-1-(3H-pyrrolo[3,2-f][1,7]naphthyridin-9-yl)piperidine-3-carboxamide] are over 0.02 µM and 0.001 to 0.02 µM.
For `CN(C(=O)C1CCCN(c2ccnc3cnc4[nH]ccc4c23)C1)C1CC1` (stereo not shown) [Ex. 79, N-cyclopropyl-N-methyl-1-(3H-pyrrolo[3,2-f][1,7]naphthyridin-9-yl)piperidine-3-carboxamide], in that order: 0.001 to 0.02 µM and over 0.02 µM.
For `CC(C)(C)OC(=O)N1CCN(c2ccnc3cnc4[nH]ccc4c23)CC1` [Comp. 127, tert-butyl 4-(3H-pyrrolo[3,2-f][1,7]naphthyridin-9-yl)piperazine-1-carboxylate], in that order: over 0.02 µM and over 0.02 µM.
Consider `CN(CC(F)(F)F)C(=O)C1CCCN(c2ccnc3cnc4[nH]ccc4c23)C1` (stereo not shown) [Ex. 80, N-methyl-1-(3H-pyrrolo[3,2-f][1,7]naphthyridin-9-yl)-N-(2,2,2-trifluoroethyl)piperidine-3-carboxamide], for which the IC50 in experiment [3] and in experiment [2] was 0.001 to 0.02 µM throughout.
Consider `O=S(=O)(CC(F)(F)F)N1CCN(c2ccnc3cnc4[nH]ccc4c23)CC1` [Ex. 104, 9-[4-(2,2,2-trifluoroethylsulfonyl)piper-azin-1-yl]-3H-pyrrolo[3,2-f][1,7]naphthyridine], for which the IC50 in experiment [3] and in experiment [2] was over 0.02 µM throughout.
Turning to `CS(=O)(=O)NC1CCCN(c2ccnc3cnc4[nH]ccc4c23)C1` (stereo not shown) [Ex. 73, N-[1-(3H-pyrrolo[3,2-f][1,7]naphthyridin-9-yl)-3-piperidyl] methanesulfonamide], the IC50 in experiment [3] is over 0.02 µM; in experiment [2] it was 0.001 to 0.02 µM.
Regarding `O=C(CC(F)(F)F)N1CCCC(c2ccnc3cnc4[nH]ccc4c23)C1` (stereo not shown) [Ex. 4, 3,3,3-trifluoro-1-[3-(3H-pyrrolo[3,2-f][1,7]naphthyridin-9-yl)-1-piperidyl]propan-1-one], the concentration for half-maximal inhibition (IC50) in experiment [3] and in experiment [2] was 0.001 to 0.02 µM in each case.
Turning to `CC(C)(C)OC(=O)N1CCCC(c2ccnc3cnc4[nH]ccc4c23)C1` (stereo not shown) [Comp. 41, tert-butyl 3-(3H-pyrrolo[3,2-f][1,7]naphthyridin-9-yl)piperidine-1-carboxylate], the IC50 in experiment [3] and in experiment [2] was 0.001 to 0.02 µM throughout.
As for `O=C(NC1CC1)C1CCN(c2ccnc3cnc4[nH]ccc4c23)CC1` [Ex. 76, N-cyclopropyl-1-(3H-pyrrolo[3,2-f][1,7]naphthyridin-9-yl)piperidine-4-carboxamide], the IC50 in experiment [3] and in experiment [2] was over 0.02 µM in each case.
